Results reported in BigSolDB 2.1.

C[C@@H]1O[C@@H](OC[C@H]2O[C@@H](Oc3c(-c4ccc(O)c(O)c4)oc4cc(O)cc(O)c4c3=O)[C@H](O)[C@@H](O)[C@@H]2O)[C@H](O)[C@H](O)[C@H]1O
solubility (mole fraction)
Conditions	273.2 K	283.2 K	293.2 K	303.2 K	313.2 K	323.2 K
in ethanol	0.00348	0.00372	0.00427	0.00515	0.00592	0.00653
in water	2.97e-06	5.29e-06	5.87e-06	8.22e-06	1.02e-05	1.42e-05
